Results from patent publication US10709692B2, “Isoxazolidine derived inhibitors of receptor interacting protein kinase 1 (RIPK1)” (Denali Therapeutics Inc., priority 2015, dated 2020).

Target: T1, receptor interacting protein kinase 1 (GST-hRIPK1 (8-327)) (Homo sapiens, UniProt Q13546)
T1 construct: GST-hRIPK1 (8-327) enzyme was generated by Proteros GmbH by Baculovirus expression system
T1 sequence (Q13546 8-327): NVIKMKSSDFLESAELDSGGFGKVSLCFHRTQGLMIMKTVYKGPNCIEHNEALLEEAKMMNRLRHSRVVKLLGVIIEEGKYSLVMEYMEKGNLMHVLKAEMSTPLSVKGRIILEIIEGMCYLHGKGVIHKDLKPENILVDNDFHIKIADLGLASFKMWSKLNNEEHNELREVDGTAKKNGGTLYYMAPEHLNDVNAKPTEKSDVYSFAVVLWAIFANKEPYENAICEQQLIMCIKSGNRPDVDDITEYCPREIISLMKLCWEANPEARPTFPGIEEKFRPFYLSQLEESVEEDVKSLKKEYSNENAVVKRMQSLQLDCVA
Assay: Fluorescent Polarization Binding (FP Binding) assay
Conditions: 10 nM GST-hRIPK1 (8-327), 5 nM fluorescent-labeled ligand, 30 min at RT
Procedure: Fluorescent Polarization Binding (FP Binding) assay (Berger S. B. et al. (2015) Cell Death Discovery, 1: 15009; Maki J. L. et al. (2012) Anal Biochem., 427(2): 164-174) was performed in polystyrene low volume 384-well black plate, at Room Temperature (RT) in a final volume of 10.1 μl/well using 10 nM of GST-hRIPK1 (8-327) enzyme and 5 nM of fluorescent-labeled ligand (14-(2-{[3-({2-{[4-(cyanomethyl)phenyl]amino}-6-[(5-cyclopropyl-1H-pyrazol-3-yl)amino]-4-pyrimidinyl}amino) propyl]amino}-2-oxoethyl)-16,16,18,18-tetramethyl-6,7,7a,8a,9,10,16,18-octahydrobenzo[2″3″]indolizino[8″, 0.7″:5′,6′]pyrano[3′,2′:3,4]pyrido[1,2-a]indol-5-ium-2-sulfonate.
Test compounds were serially diluted in DMSO at 100 fold final concentrations in the assay (1% DMSO final). In each well of a 384-well Plate were dispensed 0.1 μL of compound solution (or DMSO for controls) followed by 5 μL of GST-hRIPK1 (8-327) at twice the final concentrations in assay-buffer (50 mM HEPES pH 7.5, 10 mM NaCl, 50 mM MgCl2, 0.02% CHAPS, 0.5 mM DTT and 0.01% Pluronic F127). For negative control the enzyme addition was replaced by assay buffer only.
After addition of 5 μL of fluorescent-labeled ligand at twice the final concentrations in assay buffer, the plate was incubated at RT for 30 min. At the end, the binding was measured as FP value with the Envision (PerkinElmer) plate reader using filter for an excitation λ=531 nm FP and an emission λ=595 nm FP (S & P-pol).
Test compound inhibition was expressed as percent inhibition of internal assay controls. For concentration response curves, normalized data is fit and IC50 determined using XL-fit (IDBS) for Excel. IC50 were averaged to determine a mean value, for a minimum of two independent experiments.
Receptor interacting protein kinase 1 activity of exemplary compounds was determined according to the above general procedures.
Receptor interacting protein kinase 1 activity of certain compounds was determined according to the above general procedures.

Structure (SMILES) | IC50
Cc1cnc([C@@H]2CCON2C(=O)C(C)C(F)(F)F)cn1 (single isomer, unassigned) [Compound 130] | < 1000 nM
CC1(C(=O)N2OCC[C@H]2c2ccc(F)cc2)CCCO1 (single isomer, unassigned) [Compound 136] | 1000 to 10000 nM
CC1(C(=O)N2OCC[C@H]2c2ccc(F)cc2)CCCO1 (single isomer, unassigned) [Compound 137] | 1000 to 10000 nM
CC1(C(=O)N2OCC[C@H]2c2ccc(F)nc2)CCOC1 (single isomer, unassigned) [Compound 141] | < 1000 nM
CC1(C(=O)N2OCC[C@H]2c2ccc(F)nc2)CCOC1 (single isomer, unassigned) [Compound 142] | < 1000 nM
CC(C(=O)N1OCC[C@H]1c1ccc(F)nc1)C(F)(F)F (single isomer, unassigned) [Compound 162] | < 1000 nM
CC(C(=O)N1OCC[C@H]1c1ccc(F)nc1)C(F)(F)F (single isomer, unassigned) [Compound 163] | < 1000 nM
CC(C(=O)N1OCC[C@H]1c1ccc(C#N)cc1)C(F)(F)F (single isomer, unassigned) [Compound 179] | < 1000 nM
CC(C(=O)N1OCC[C@H]1c1ccc(C#N)cc1)C(F)(F)F (single isomer, unassigned) [Compound 180] | < 1000 nM
CC(OC(F)(F)F)C(=O)N1OCC[C@H]1c1ccc(F)cc1 (single isomer, unassigned) [Compound 183] | < 1000 nM
CC(OC(F)(F)F)C(=O)N1OCC[C@H]1c1ccc(F)nc1 (single isomer, unassigned) [Compound 184] | < 1000 nM
CC(OC(F)(F)F)C(=O)N1OCC[C@H]1c1ccc(F)nc1 (single isomer, unassigned) [Compound 185] | 1000 to 10000 nM
Cc1noc(C)c1C(C)C(=O)N1OCC[C@H]1c1ccc(F)cc1 (single isomer, unassigned) [Compound 186] | 1000 to 10000 nM
CC(C(=O)N1OCC[C@H]1c1ccc(F)cc1)C(F)F (single isomer, unassigned) [Compound 188] | < 1000 nM
CC(C(=O)N1OCC[C@H]1c1ccc(F)cc1)C(F)F (single isomer, unassigned) [Compound 189] | < 1000 nM
CC(CC#N)C(=O)N1OCC[C@H]1c1ccc(C#N)cc1 (single isomer, unassigned) [Compound 209] | < 1000 nM
CC(CC#N)C(=O)N1OCC[C@H]1c1ccc(C#N)cc1 (single isomer, unassigned) [Compound 210] | 1000 to 10000 nM
CC1(C(=O)N2OCC[C@H]2c2ccc(F)c(F)c2)CCOC1 (single isomer, unassigned) [Compound 211] | < 1000 nM
CC1(C(=O)N2OCC[C@H]2c2ccc(F)c(F)c2)CCOC1 (single isomer, unassigned) [Compound 212] | < 1000 nM
CC(C(=O)N1OCC[C@H]1c1ccc(C#N)cc1)C1CC1 (single isomer, unassigned) [Compound 213] | < 1000 nM
CC(C(=O)N1OCC[C@H]1c1ccc(C#N)cc1)C1CC1 (single isomer, unassigned) [Compound 214] | < 1000 nM
CC1CC1C(=O)N1OCC[C@H]1c1ccc(C#N)cc1 (single isomer, unassigned) [Compound 215] | < 1000 nM
CC1CC1C(=O)N1OCC[C@H]1c1ccc(C#N)cc1 (single isomer, unassigned) [Compound 216] | 1000 to 10000 nM
Cc1ncc([C@@H]2CCON2C(=O)C(C)C2CC2)cc1F (single isomer, unassigned) [Compound 217] | < 1000 nM
Cc1ncc([C@@H]2CCON2C(=O)C(C)C2CC2)cc1F (single isomer, unassigned) [Compound 218] | < 1000 nM
CC(CC(F)(F)F)C(=O)N1OCC[C@H]1c1ccc(C#N)cc1 (single isomer, unassigned) [Compound 230] | < 1000 nM
CC(CC(F)(F)F)C(=O)N1OCC[C@H]1c1ccc(C#N)cc1 (single isomer, unassigned) [Compound 231] | < 1000 nM
CC(CC(F)F)C(=O)N1OCC[C@H]1c1ccc(C#N)cc1 (single isomer, unassigned) [Compound 232] | < 1000 nM
